In ChEMBL document CHEMBL3885861, “Open TG-GATES”:

Species: Rattus norvegicus
Assay: Open TG-GATES - Regimen: Single
Format: toxicity, organism-based, Sprague-Dawley
Set-up: regimen Single, gender Male, age 6 weeks
Settings: in vivo, iv, route intravenous injection; for gamma-GTP / ALT / AST / CRE / DBIL / GLC / K / LDH / Na / PL / RALB / TBIL / TC / TP: tissue Plasma; for Bas / Eos / Hb / Ht / Lym / MCH / MCHC / MCV / Mono / Neu / Plat / RBC / Ret: tissue Blood; for KIDNEY_L / KIDNEY_R / KIDNEY_TOTAL: tissue Kidney

## CC(C)C[C@H](NC(=O)[C@H](Cc1ccccc1)NC(=O)c1cnccn1)B(O)O [BORTEZOMIB]
0 mg/kg, 24 h, dose level Control
  gamma-GTP: 1 IU/L
1 mg/kg, 3 h, dose level High
  TERMINAL_BW: 228.6 g
  Bas: 0%
  Eos: 0.6%
  Hb: 14.6 g/dL
  Ht: 41.1%
  Lym: 73%
  MCH: 22.6 pg
  MCHC: 35.4%
  MCV: 63.7 fL
  Mono: 2.2%
  Neu: 23.8%
  Plat: 121.1 x10_4/uL
  RBC: 645.8 x10_4/ul
  Ret: 8.6%
  KIDNEY_L: 0.9 g
  KIDNEY_R: 1 g
  KIDNEY_TOTAL: 1.9 g
  ALT: 60 IU/L
  AST: 123.6 IU/L
  CRE: 0.2 mg/dL
  DBIL: 0.008 mg/dL
  GLC: 155 mg/dL
  K: 4.2 meq/L
  LDH: 295.6 IU/L
  Na: 141.3 meq/L
  PL: 99 mg/dL
  RALB: 3.7 g/dL
  TBIL: 0.012 mg/dL
  TC: 63.6 mg/dL
  TP: 5 g/dL
  gamma-GTP: 0.8 IU/L
1 mg/kg, 6 h, dose level High
  TERMINAL_BW: 226.8 g
  Bas: 0%
  Eos: 0.2%
  Hb: 14.2 g/dL
  Ht: 39.8%
  Lym: 61%
  MCH: 22.8 pg
  MCHC: 35.7%
  MCV: 63.8 fL
  Mono: 2.2%
  Neu: 35.6%
  Plat: 113.4 x10_4/uL
  RBC: 623.4 x10_4/ul
  Ret: 8.3%
  KIDNEY_L: 1 g
  KIDNEY_R: 1 g
  KIDNEY_TOTAL: 1.9 g
  ALT: 116.4 IU/L
  AST: 191.4 IU/L
  CRE: 0.2 mg/dL
  DBIL: 0.006 mg/dL
  GLC: 148.2 mg/dL
  K: 4.4 meq/L
  LDH: 314.4 IU/L
  Na: 141.2 meq/L
  PL: 78.4 mg/dL
  RALB: 3.7 g/dL
  TBIL: 0.008 mg/dL
  TC: 44.6 mg/dL
  TP: 4.9 g/dL
  gamma-GTP: 0.6 IU/L
1 mg/kg, 9 h, dose level High
  TERMINAL_BW: 222.8 g
  Bas: 0%
  Eos: 0.8%
  Hb: 14.3 g/dL
  Ht: 40.6%
  Lym: 49%
  MCH: 23 pg
  MCHC: 35.2%
  MCV: 65.2 fL
  Mono: 2%
  Neu: 48.2%
  RBC: 622 x10_4/ul
  Ret: 8.2%
  KIDNEY_L: 1 g
  KIDNEY_R: 1 g
  KIDNEY_TOTAL: 2 g
  ALT: 122.2 IU/L
  AST: 182 IU/L
  CRE: 0.2 mg/dL
  DBIL: 0.014 mg/dL
  GLC: 150.4 mg/dL
  K: 4 meq/L
  LDH: 262 IU/L
  Na: 140.9 meq/L
  PL: 74 mg/dL
  RALB: 3.6 g/dL
  TBIL: 0.02 mg/dL
  TC: 36.2 mg/dL
  TP: 4.7 g/dL
  gamma-GTP: 0.8 IU/L
1 mg/kg, 24 h, dose level High
  TERMINAL_BW: 215.1 g
  Bas: 0%
  Eos: 0%
  Hb: 12.6 g/dL
  Ht: 35.2%
  Lym: 42%
  MCH: 23.4 pg
  MCHC: 35.8%
  MCV: 65.5 fL
  Mono: 2.7%
  Neu: 54%
  Plat: 89 x10_4/uL
  RBC: 538.3 x10_4/ul
  Ret: 5.4%
  KIDNEY_L: 1 g
  KIDNEY_R: 1 g
  KIDNEY_TOTAL: 2 g
  ALT: 163 IU/L
  AST: 368.7 IU/L
  CRE: 0.2 mg/dL
  DBIL: 0.5 mg/dL
  GLC: 134.7 mg/dL
  K: 4 meq/L
  LDH: 922.3 IU/L
  Na: 135.5 meq/L
  PL: 100.3 mg/dL
  RALB: 2.7 g/dL
  TBIL: 0.5 mg/dL
  TC: 41 mg/dL
  TP: 3.9 g/dL
  gamma-GTP: 4.3 IU/L
